Test results published in the supplement of paper PMC10307832.

Key:
Experiment in all cases: relative viability (nuclei count vs DMSO), 5 days (fraction); higher = more cells survive
201T = test system: 201T
Method in brief: (§1)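 A single step with final 0.05% Triton X-100, 1% formaldehyde and 1 ug/ml Hoechst fixed the cells and stained nuclei 5 days after treatment. Lung cancer cell lines in 1536-well plates had been treated by pin tool the day after seeding with one drug alone or a fixed anchor-drug dose plus five library-drug doses (not always all listed) in √10 steps, and nuclei were counted on 4× images. Relative viability is the ratio of nuclei in treated wells to nuclei in vehicle wells, taken as the median of duplicate plates.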

COR-L 105 = test system: COR-L 105
Method in brief: as §1

ChaGo-K-1 = test system: ChaGo-K-1
Method in brief: as §1

EKVX = test system: EKVX
Method in brief: as §1

H3255 = test system: H3255
Method in brief: as §1

HARA = test system: HARA
Method in brief: as §1

HCC-827 = test system: HCC-827
Method in brief: as §1

HOP-62 = test system: HOP-62
Method in brief: as §1

LCLC-103H = test system: LCLC-103H
Method in brief: as §1

LOU-NH91 = test system: LOU-NH91
Method in brief: as §1

NCI-H1975 = test system: NCI-H1975
Method in brief: as §1

NCI-H2126 = test system: NCI-H2126
Method in brief: as §1

NCI-H2228 = test system: NCI-H2228
Method in brief: as §1

NCI-H23 = test system: NCI-H23
Method in brief: as §1

NCI-H2405 = test system: NCI-H2405
Method in brief: as §1

NCI-H3122 = test system: NCI-H3122
Method in brief: as §1

NCI-H596 = test system: NCI-H596
Method in brief: as §1

NCI-H650 = test system: NCI-H650
Method in brief: as §1

NCI-H661 = test system: NCI-H661
Method in brief: as §1

NCI-H727 = test system: NCI-H727
Method in brief: as §1

PC-3 [JPC-3] = test system: PC-3 [JPC-3]
Method in brief: as §1

SK-LU-1 = test system: SK-LU-1
Method in brief: as §1

SW 900 = test system: SW 900
Method in brief: as §1

Work on CN1CCN(CCOc2cc(OC3CCOCC3)c3c(Nc4c(Cl)ccc5c4OCO5)ncnc3c2)CC1 [Saracatinib] + COc1cc2c(Oc3ccc(NC(=O)C4(C(=O)Nc5ccc(F)cc5)CC4)cc3F)ccnc2cc1OCCCN1CCOCC1 [Foretinib] (partner 0.25 µM) yielded a relative viability (201T; first compound 0.02 µM) of 1.16, a relative viability (201T; first compound 0.2 µM) of 0.752 and a relative viability (201T; first compound 0.6325 µM) of 1. It also gave a relative viability (201T; first compound 2 µM) of 0.693, a relative viability (COR-L 105; first compound 0.02 µM) of 0.973 and a relative viability (COR-L 105; first compound 0.2 µM) of 1.04. It also gave a relative viability (COR-L 105; first compound 0.6325 µM) of 1.09, a relative viability (COR-L 105; first compound 2 µM) of 0.816 and a relative viability (ChaGo-K-1; first compound 0.02 µM) of 0.943. The relative viability (ChaGo-K-1; first compound 0.2 µM) was 0.699, the relative viability (ChaGo-K-1; first compound 0.6325 µM) was 0.973 and the relative viability (ChaGo-K-1; first compound 2 µM) was 0.874. It also gave a relative viability (EKVX; first compound 0.02 µM) of 0.866, a relative viability (EKVX; first compound 0.6325 µM) of 0.268 and a relative viability (EKVX; first compound 2 µM) of 0.401. It also gave a relative viability (H3255; first compound 0.02 µM) of 0.97, a relative viability (H3255; first compound 0.2 µM) of 0.749 and a relative viability (H3255; first compound 0.6325 µM) of 0.987. The relative viability (H3255; first compound 2 µM) was 0.3, the relative viability (HARA; first compound 0.02 µM) was 0.873 and the relative viability (HARA; first compound 0.2 µM) was 0.751. It also gave a relative viability (HARA; first compound 0.6325 µM) of 0.739, a relative viability (HARA; first compound 2 µM) of 0.368 and a relative viability (HCC-827; first compound 0.02 µM) of 1.08. For the same compound, the relative viability (HCC-827; first compound 0.2 µM) was 0.452, the relative viability (HCC-827; first compound 0.6325 µM) was 0.193 and the relative viability (HCC-827; first compound 2 µM) was 0.17. It also gave a relative viability (HOP-62; first compound 0.02 µM) of 1.17, a relative viability (HOP-62; first compound 0.2 µM) of 1.02 and a relative viability (HOP-62; first compound 0.6325 µM) of 1.13. The relative viability (HOP-62; first compound 2 µM) was 1.16, the relative viability (LCLC-103H; first compound 0.02 µM) was 0.698 and the relative viability (LCLC-103H; first compound 0.2 µM) was 0.669. The relative viability (LCLC-103H; first compound 0.6325 µM) was 0.742, the relative viability (LCLC-103H; first compound 2 µM) was 0.572 and the relative viability (LOU-NH91; first compound 0.02 µM) was 0.867. For the same compound, the relative viability (LOU-NH91; first compound 0.2 µM) was 0.661, the relative viability (LOU-NH91; first compound 0.6325 µM) was 0.609 and the relative viability (LOU-NH91; first compound 2 µM) was 0.488. For the same compound, the relative viability (NCI-H1975; first compound 0.02 µM) was 0.956, the relative viability (NCI-H1975; first compound 0.2 µM) was 0.85 and the relative viability (NCI-H1975; first compound 0.6325 µM) was 0.96. It also gave a relative viability (NCI-H1975; first compound 2 µM) of 0.631, a relative viability (NCI-H2126; first compound 0.02 µM) of 1.15 and a relative viability (NCI-H2126; first compound 0.2 µM) of 1.22. For the same compound, the relative viability (NCI-H2126; first compound 0.6325 µM) was 1.17, the relative viability (NCI-H2126; first compound 2 µM) was 1.07 and the relative viability (NCI-H2228; first compound 0.02 µM) was 0.765. For the same compound, the relative viability (NCI-H2228; first compound 0.2 µM) was 0.733, the relative viability (NCI-H2228; first compound 0.6325 µM) was 0.873 and the relative viability (NCI-H2228; first compound 2 µM) was 0.591. For the same compound, the relative viability (NCI-H23; first compound 0.02 µM) was 0.825, the relative viability (NCI-H23; first compound 0.2 µM) was 0.815 and the relative viability (NCI-H23; first compound 0.6325 µM) was 1. The relative viability (NCI-H23; first compound 2 µM) was 0.545, the relative viability (NCI-H2405; first compound 0.02 µM) was 1.03 and the relative viability (NCI-H2405; first compound 0.2 µM) was 0.94. It also gave a relative viability (NCI-H2405; first compound 0.6325 µM) of 0.98, a relative viability (NCI-H2405; first compound 2 µM) of 0.658 and a relative viability (NCI-H3122; first compound 0.02 µM) of 0.927. It also gave a relative viability (NCI-H3122; first compound 0.2 µM) of 0.891, a relative viability (NCI-H3122; first compound 0.6325 µM) of 0.9 and a relative viability (NCI-H3122; first compound 2 µM) of 0.66. For the same compound, the relative viability (NCI-H596; first compound 0.02 µM) was 0.874, the relative viability (NCI-H596; first compound 0.2 µM) was 0.641 and the relative viability (NCI-H596; first compound 0.6325 µM) was 0.826. For the same compound, the relative viability (NCI-H596; first compound 2 µM) was 0.591, the relative viability (NCI-H650; first compound 0.02 µM) was 0.996 and the relative viability (NCI-H650; first compound 0.2 µM) was 0.922. The relative viability (NCI-H650; first compound 0.6325 µM) was 1.03, the relative viability (NCI-H650; first compound 2 µM) was 1.03 and the relative viability (NCI-H661; first compound 0.02 µM) was 1.02. The relative viability (NCI-H661; first compound 0.2 µM) was 0.948, the relative viability (NCI-H661; first compound 0.6325 µM) was 0.993 and the relative viability (NCI-H661; first compound 2 µM) was 0.45. It also gave a relative viability (NCI-H727; first compound 0.02 µM) of 0.814, a relative viability (NCI-H727; first compound 0.2 µM) of 1.04 and a relative viability (NCI-H727; first compound 0.6325 µM) of 0.923. The relative viability (NCI-H727; first compound 2 µM) was 0.553, the relative viability (PC-3 [JPC-3]; first compound 0.02 µM) was 1.04 and the relative viability (PC-3 [JPC-3]; first compound 0.2 µM) was 0.889. It also gave a relative viability (PC-3 [JPC-3]; first compound 0.6325 µM) of 0.693, a relative viability (PC-3 [JPC-3]; first compound 2 µM) of 0.396 and a relative viability (SK-LU-1; first compound 0.02 µM) of 0.602. For the same compound, the relative viability (SK-LU-1; first compound 0.2 µM) was 0.51, the relative viability (SK-LU-1; first compound 0.6325 µM) was 0.415 and the relative viability (SK-LU-1; first compound 2 µM) was 0.298. The relative viability (SW 900; first compound 0.02 µM) was 0.78, the relative viability (SW 900; first compound 0.2 µM) was 0.737 and the relative viability (SW 900; first compound 0.6325 µM) was 0.919. It also gave a relative viability (SW 900; first compound 2 µM) of 0.776.
